Assay results reported in PubChem BioAssay AID1745844 (Carcinogenic Potency Database (CPDB), 2022).
Calls of active or inactive are those of the source. No rule for the calls is given here.

System: rodent lifetime carcinogenesis bioassay, tumor incidence TD50
Assay: chronic cancer bioassays in animals – CPDB, compiled studies (AID 1745844)

`O=[N+]([O-])c1ccc(-c2cnc3ccccn23)o1` was tested, and the carcinogen call (mouse, strain CTM, females, in feed, site: any site (literature study), lesion: several types, types named in the paper, dosed 40 weeks, study length 79 weeks) was “positive”, the carcinogen call (mouse, strain CTM, females, in feed, site: liver, lesion: hepatoma, dosed 40 weeks, study length 79 weeks) was “negative (inactive)” and the carcinogen call (mouse, strain CTM, females, in feed, site: lung, lesion: one or several types, types not named, dosed 40 weeks, study length 79 weeks) was “negative (inactive)”. It also gave a TD50 (mouse, strain CTM, females, in feed, site: several sites, sites named in the paper, lesion: carcinoma, dosed 40 weeks, study length 79 weeks) of 21.6 mg/kg/day, a TD50 (mouse, strain CTM, females, in feed, site: several sites, sites named in the paper, lesion: papilloma, dosed 40 weeks, study length 79 weeks) of 117 mg/kg/day and a TD50 (mouse, strain CTM, females, in feed, site: thyroid gland, lesion: lymphosarcoma, dosed 40 weeks, study length 79 weeks) of 781 mg/kg/day. For the same molecule, the TD50 (mouse, strain CTM, males, in feed, site: any site (literature study), lesion: several types, types named in the paper, dosed 40 weeks, study length 73 weeks) was 57.1 mg/kg/day, the carcinogen call (mouse, strain CTM, males, in feed, site: liver, lesion: hepatoma, dosed 40 weeks, study length 73 weeks) was “negative (inactive)” and the TD50 (mouse, strain CTM, males, in feed, site: lung, lesion: one or several types, types not named, dosed 40 weeks, study length 73 weeks) was 763 mg/kg/day (inactive). The TD50 (mouse, strain CTM, males, in feed, site: several sites, sites named in the paper, lesion: carcinoma, dosed 40 weeks, study length 73 weeks) was 40.1 mg/kg/day, the TD50 (mouse, strain CTM, males, in feed, site: several sites, sites named in the paper, lesion: papilloma, dosed 40 weeks, study length 73 weeks) was 65.8 mg/kg/day and the TD50 (rat, strain Wistar, females, in feed, site: any site (literature study), lesion: several types, types named in the paper, dosed 40 weeks, study length 89 weeks) was 15.8 mg/kg/day. The TD50 (rat, strain Wistar, females, in feed, site: kidney, lesion: one or several types, types not named, dosed 40 weeks, study length 89 weeks) was 116 mg/kg/day, the TD50 (rat, strain Wistar, females, in feed, site: liver, lesion: hepatoma, dosed 40 weeks, study length 89 weeks) was 644 mg/kg/day and the TD50 (rat, strain Wistar, females, in feed, site: mammary tissue, wider than the gland, lesion: one or several types, types not named, dosed 40 weeks, study length 89 weeks) was 33.3 mg/kg/day. For the same molecule, the TD50 (rat, strain Wistar, females, in feed, site: several sites, sites named in the paper, lesion: carcinoma, dosed 40 weeks, study length 89 weeks) was 443 mg/kg/day, the TD50 (rat, strain Wistar, females, in feed, site: several sites, sites named in the paper, lesion: papilloma, dosed 40 weeks, study length 89 weeks) was 27.5 mg/kg/day and the TD50 (rat, strain Wistar, males, in feed, site: any site (literature study), lesion: several types, types named in the paper, dosed 40 weeks, study length 83 weeks) was 11.9 mg/kg/day. For the same molecule, the TD50 (rat, strain Wistar, males, in feed, site: kidney, lesion: one or several types, types not named, dosed 40 weeks, study length 83 weeks) was 21.4 mg/kg/day, the TD50 (rat, strain Wistar, males, in feed, site: liver, lesion: hepatoma, dosed 40 weeks, study length 83 weeks) was 959 mg/kg/day and the TD50 (rat, strain Wistar, males, in feed, site: several sites, sites named in the paper, lesion: carcinoma, dosed 40 weeks, study length 83 weeks) was 104 mg/kg/day. The TD50 (rat, strain Wistar, males, in feed, site: several sites, sites named in the paper, lesion: papilloma, dosed 40 weeks, study length 83 weeks) was 43.7 mg/kg/day.

For `CCCNN`, the TD50 (mouse, strain Swiss albino, females, in drinking water, site: lung, lesion: adenocarcinoma, dosed 99 weeks, study length 99 weeks) was 109 mg/kg/day, the TD50 (mouse, strain Swiss albino, females, in drinking water, site: lung, lesion: adenoma, dosed 99 weeks, study length 99 weeks) was 42.7 mg/kg/day and the TD50 (mouse, strain Swiss albino, females, in drinking water, site: lung, lesion: several types, types named in the paper, dosed 99 weeks, study length 99 weeks) was 41.4 mg/kg/day. For the same molecule, the TD50 (mouse, strain Swiss albino, males, in drinking water, site: liver, lesion: liver-cell carcinoma, dosed 93 weeks, study length 93 weeks) was 102 mg/kg/day (inactive), the TD50 (mouse, strain Swiss albino, males, in drinking water, site: liver, lesion: several types, types named in the paper, dosed 93 weeks, study length 93 weeks) was 80.8 mg/kg/day and the TD50 (mouse, strain Swiss albino, males, in drinking water, site: lung, lesion: adenoma, dosed 93 weeks, study length 93 weeks) was 41.3 mg/kg/day. For the same molecule, the TD50 (mouse, strain Swiss albino, males, in drinking water, site: lung, lesion: several types, types named in the paper, dosed 93 weeks, study length 93 weeks) was 50.5 mg/kg/day.

For `Cc1cccc2cccnc12`, the carcinogen call (rat, strain Fischer 344, females, in feed, site: liver, lesion: hyperplastic nodule, dosed 104 weeks, study length 104 weeks) was “negative (inactive)” and the carcinogen call (rat, strain Fischer 344, males, in feed, site: liver, lesion: hyperplastic nodule, dosed 104 weeks, study length 104 weeks) was “negative (inactive)”.

With `Cc1cc(Cc2ccc(N)c(C)c2)ccc1N` the TD50 (rat, strain Charles River CD (Sprague-Dawley), females, in feed, site: liver, lesion: cholangiocarcinoma, dosed 82 weeks, study length 82 weeks) was 96.3 mg/kg/day, the TD50 (rat, strain Charles River CD (Sprague-Dawley), females, in feed, site: liver, lesion: hepatocellular adenoma, dosed 82 weeks, study length 82 weeks) was 30.5 mg/kg/day and the TD50 (rat, strain Charles River CD (Sprague-Dawley), females, in feed, site: liver, lesion: hepatocellular carcinoma, dosed 82 weeks, study length 82 weeks) was 7.92 mg/kg/day. The TD50 (rat, strain Charles River CD (Sprague-Dawley), males, in feed, site: liver, lesion: hemangioma, dosed 68 weeks, study length 68 weeks) was 35.2 mg/kg/day, the TD50 (rat, strain Charles River CD (Sprague-Dawley), males, in feed, site: liver, lesion: hepatocellular adenoma, dosed 68 weeks, study length 68 weeks) was 17 mg/kg/day and the TD50 (rat, strain Charles River CD (Sprague-Dawley), males, in feed, site: liver, lesion: hepatocellular carcinoma, dosed 68 weeks, study length 68 weeks) was 12.4 mg/kg/day. The TD50 (rat, strain Charles River CD (Sprague-Dawley), males, in feed, site: mammary gland, lesion: fibroadenoma, dosed 68 weeks, study length 68 weeks) was 6.91 mg/kg/day and the TD50 (rat, strain Charles River CD (Sprague-Dawley), males, in feed, site: skin, lesion: fibroma, dosed 68 weeks, study length 68 weeks) was 8.19 mg/kg/day.
